Results reported in patent US10130590B2, “Methods of treating cancer with atovaquone-related compounds” (DANA-FARBER CANCER INSTITUTE, INC., priority 2013, dated 2018).

Test system: STAT3
Assay: Western blot of STAT3 phosphorylation in reporter and cancer cell lines
Format: cell-based, human
Method: Western blotting was performed as previously described (Battle T E, Arbiser J, & Frank D A (2005) The natural product honokiol induces caspase dependent apoptosis in B-cell chronic lymphocytic leukemia (B-CLL) cells. Blood 106(2):690-697). Antibodies to phospho-MAPK (9101), total MAPK (9102), phospho-Y705 STAT3 (9131), phospho-S6 (2215), total S6 (2217), phospho-4E-BP1 (9451), total 4E-BP1 (9644), total RSK (9355), phospho-S6K (9234, 85 used at 1:5000), total S6K (2708), phospho-eIF2α (9721, used at 1:1000), total eIF2α (5324), ATF4 (11815, used at 1:1000), PDGFRβ (3169), IGF1Rβ (9750), EGFR (2232), and HER2 (2242) were from Cell Signaling Technology. Phospho-RSK antibody was from R&D (AF889). Antibodies to total STAT3 (sc-482) and gp130 (sc-656, used at 1:1000) were from Santa Cruz Biotechnology. Phospho-S727 STAT3 antibody was described previously (229). REDD1 antibody was from Proteintech (10638-1-AP, used at 1:1000). Antibody recognizing full-length and cleaved ATF6 was from Abcam (ab122897, used at 1:1000). Antibodies to tubulin (T5168) and beta actin (A5316) were from Sigma. All antibodies were used at 1:10000 dilution for western blot unless otherwise noted. For immunoprecipitations, cells were lysed in 500 μl lysis buffer (0.5% NP-40, 150 mM NaCl, 50 mM Tris pH 7.5, with protease and phosphatase inhibitors freshly added at 1:100 [Pierce, PI78443]) on ice for 15 minutes, then centrifuged for 10 minutes at 14,000 RPM and 4° C. The supernatant was transferred to a new tube and incubated with 10 μl JAK2 antibody (Santa Cruz sc-278) or a mix of two TYK2 antibodies, 10 μl of each (Santa Cruz sc-5271 and Cell Signaling Technology 9312). Immunoprecipitation was performed overnight at 4° C. with rotation. The next day, 75 μl of protein A/G beads (Santa Cruz sc-2003) were washed twice in lysis buffer, then incubated with immunoprecipitates overnight as before. The next day, the beads were spun down (1 min. at 7,500 RPM and 4° C.) and washed 3 times with 650 μl lysis buffer for 10 minutes at 4° C. with rotation, then boiled in 50 μl sample buffer+10% β-mercaptoethanol. For Western blot, 20 μl were loaded per lane. For detection of phospho-tyrosine, a mixture of two pan-phospho-tyrosine antibodies (Cell Signaling Technology 9411 and 9416, 1:1000 of each) was used. Antibody to phospho-Y1007/1008 JAK2 was from Cell Signaling 86 Technology (3771, used at 1:1000). Antibody to phospho-Y570 JAK2 was from Millipore (09-241, used at 1:1000). Luminometric Assays Luciferase reporter cell lines were described previously (186). Firefly luciferase values were normalized by concurrent cell viability. Cell viability was measured as ATP-dependent luminescence by Cell Titer Glo (Promega).
The mechanism by which atovaquone inhibits STAT3 was investigated. STAT3-luc reporter cells were pre-treated with atovaquone (20 μM) for 1 hr, and then stimulated with IL-6 (10 ng/ml) for 15 minutes, 30 minutes, 1 hours, or 2 hours. Since STAT3 transcriptional activity is critically dependent on tyrosine phosphorylation, Western blotting was performed to see if atovaquone affected STAT3 phosphorylation. […] Next, atovaquone was used to treat U266 (2.5 hours), HEL (6 hours), or INA-6 cells (4 hours). […] In U266 and INA-6 cells, the source of STAT3 activation is JAK-dependent IL-6 signaling, while in HEL cells, STAT3 is activated by mutant JAK2-V617F. Given that atovaquone inhibits constitutive STAT3 activation in cancer cells, it was asked whether atovaquone inhibits expression of endogenous STAT3 target genes in this context.
Since atovaquone reduced gp130 expression at the cell surface, it was asked whether this effect was accompanied by reduced total gp130 in the cell. To address this question, a time course of atovaquone treatment was performed and total cellular gp130 was measured by Western blotting in U266 cells treated with atovaquone at 20 μM. […]

Structure (SMILES): O=C1C(O)=C([C@H]2CC[C@H](c3ccc(Cl)cc3)CC2)C(=O)c2ccccc21 [atovaquone, trans-2-[4-(4-chlorophenyl)cyclohexyl]-3-hydroxy-1,4-naphthalenedione]
- STAT3 tyrosine phosphorylation following IL-6 stimulation (STAT3 reporter cells, 20 μM pre-treatment 1 hr, IL-6 (10 ng/ml)): reduced STAT3 tyrosine phosphorylation
- constitutive STAT3 tyrosine phosphorylation (U266 (2.5 hours), HEL (6 hours), INA-6 (4 hours)): inhibited constitutive STAT3 tyrosine phosphorylation
- time after which STAT3 phosphorylation was inhibited (U266, 20 μM, time course): 10 min
- STAT3 serine phosphorylation (U266, HEL, INA-6 cells): not affected
- inhibition of STAT3 phosphorylation after cycloheximide pre-treatment (U266, cycloheximide 2 μg/ml 1 hour, atovaquone 15 μM 2.5 hours): did not affect the inhibition of STAT3 phosphorylation
